Assay results: patent US8431706B2, “1,2,3,4-tetrahydroqinoline derivative useful for the treatment of diabetes” (Eli Lilly and Company, priority 2011, dated 2013)

Tests used:
PPARγ = biological target: T1, PPARγ (Homo sapiens, UniProt P37231); experiment: PPARγ binding assay (SPA); design: made in house; host or cells: HEK293 (cell lysates)
T1 sequence (P37231 1-505): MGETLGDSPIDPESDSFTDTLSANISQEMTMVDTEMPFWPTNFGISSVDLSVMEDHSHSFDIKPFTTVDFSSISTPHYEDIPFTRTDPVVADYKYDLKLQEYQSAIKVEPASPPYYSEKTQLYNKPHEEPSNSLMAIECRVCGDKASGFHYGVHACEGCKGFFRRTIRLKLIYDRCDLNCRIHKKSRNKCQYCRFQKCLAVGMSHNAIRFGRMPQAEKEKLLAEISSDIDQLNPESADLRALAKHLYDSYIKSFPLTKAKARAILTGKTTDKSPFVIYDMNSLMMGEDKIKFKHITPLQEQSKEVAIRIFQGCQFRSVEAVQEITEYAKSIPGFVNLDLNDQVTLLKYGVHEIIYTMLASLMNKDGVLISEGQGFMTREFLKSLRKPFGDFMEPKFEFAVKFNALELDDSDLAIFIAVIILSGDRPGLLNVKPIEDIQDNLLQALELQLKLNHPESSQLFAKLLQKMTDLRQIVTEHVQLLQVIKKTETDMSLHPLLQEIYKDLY
T1 sequence (P19793 1-462 partner): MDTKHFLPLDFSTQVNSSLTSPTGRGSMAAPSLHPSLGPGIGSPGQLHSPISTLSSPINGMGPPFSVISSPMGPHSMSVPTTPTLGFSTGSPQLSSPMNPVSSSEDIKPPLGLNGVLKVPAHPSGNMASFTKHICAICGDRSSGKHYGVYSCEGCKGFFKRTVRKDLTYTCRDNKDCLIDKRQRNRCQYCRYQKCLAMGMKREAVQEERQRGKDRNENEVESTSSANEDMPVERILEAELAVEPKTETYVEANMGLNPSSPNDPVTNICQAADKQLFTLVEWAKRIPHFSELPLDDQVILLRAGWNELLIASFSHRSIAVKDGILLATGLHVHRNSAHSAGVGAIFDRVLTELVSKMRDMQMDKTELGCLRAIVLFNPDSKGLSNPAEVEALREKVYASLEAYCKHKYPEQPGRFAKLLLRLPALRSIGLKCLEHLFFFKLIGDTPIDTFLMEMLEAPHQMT
Protocol: (§1) Because GPR40 is known to be activated by ligands to PPARγ, the exemplified compound is examined in PPARα, PPARδ, and PPARγ binding and functional assays to determine the selectivity of the compound of Example 1 for GPR40.
(§2) Binding affinities of the compound for the PPAR α, δ, and γ receptors are assessed using Scintillation Proximity Assay (SPA) technology. Biotinylated oligonucleotide Direct Repeat 2 (DR2) is used for binding the receptors to Yttrium silicate streptavidin-coated SPA beads. PPAR α, δ, γ and retinoid X receptor (RXR) α are over expressed in HEK293 cells, and cell lysates containing the specific receptors are used in the individual assays. The DR2 is attached to the SPA beads over a 30 minute period in a binding buffer containing 10 mM HEPES pH 7.8, 80 mM KCl, 0.5 mM MgCl2, 1 mM DTT, 0.5% 3[(3-cholamidopropyl)dimethylammonio]-propanesulfonic acid (CHAPS), and 4.4% bovine serum. […] Non-specific binding is determined in the presence of 10,000 nM of the unlabeled PPAR α/δ dual agonist reference compound for the alpha and delta receptor assays and the PPARγ agonist reference compound for the gamma receptor assay. The binding reaction (100 μl per well in a 96 well [Costar 3632] plate) is incubated for 10 h and counted disintegration per minutes (dpm) on a Wallac Microbeta. Receptor binding affinity (IC50) for the compound is determined by fitting an 11 point concentration-response curve with a 4-parameter logistic equation. Ki is determined from the IC50 using the Cheng-Prussoff equation and Kd determined by saturation binding. […]

PPARα = biological target: T2, PPARα (Homo sapiens, UniProt Q07869); experiment: PPARα binding assay (SPA)
T2 construct: made in house; host or cells: HEK293 (cell lysates)
T2 sequence (Q07869 1-468): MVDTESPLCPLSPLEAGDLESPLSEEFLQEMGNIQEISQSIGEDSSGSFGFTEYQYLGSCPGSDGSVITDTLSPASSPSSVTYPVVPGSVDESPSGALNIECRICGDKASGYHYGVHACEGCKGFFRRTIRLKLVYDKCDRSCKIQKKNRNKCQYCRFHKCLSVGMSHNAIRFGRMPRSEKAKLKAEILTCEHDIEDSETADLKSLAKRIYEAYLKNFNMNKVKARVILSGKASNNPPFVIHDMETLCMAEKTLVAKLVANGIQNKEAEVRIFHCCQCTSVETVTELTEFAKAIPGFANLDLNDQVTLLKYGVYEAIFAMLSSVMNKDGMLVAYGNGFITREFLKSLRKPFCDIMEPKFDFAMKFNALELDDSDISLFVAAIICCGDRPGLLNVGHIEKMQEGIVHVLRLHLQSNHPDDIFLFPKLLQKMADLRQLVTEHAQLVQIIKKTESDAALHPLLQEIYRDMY
T2 sequence (P19793 1-462 partner): T1 sequence (P19793 1-462 partner)
Protocol: as §1, §2

[1] = tested up to 30 μM, read-out: relative IC50
[2] = with 10 μM concentrations of test compound

binding (PPARγ; concentrations up to 10 μM): no binding is detected
IC50 (PPARγ; [1]): > 10 µM
PPAR binding values (PPARγ; [2]): greater than 1000 nM
binding (PPARα; concentrations up to 10 μM): no binding is detected
IC50 (PPARα; [1]): > 10 µM
PPAR binding values (PPARα; [2]): greater than 1000 nM
Structure (SMILES): CC#C[C@@H](CC(=O)O)c1ccc(OCc2ccc(CN3CCCc4cccc(OC)c43)s2)cc1 [Example 1, (3S)-3-[4-[[5-[(8-Methoxy-3,4-dihydro-2H-quinolin-1-yl)methyl]-2-thienyl]methoxy]phenyl]hex-4-ynoic acid]
